In patent US11702404B2, “GLP-1R modulating compounds” (priority 2019, dated 2023):

Key:
GLP-1R = GLP-1R (Homo sapiens, UniProt P43220); test: GLP-1R activation: cAMP increase in CHO cells stably expressing GLP-1R; type: cell-based; conditions: cAMP increase, CHO cells stably expressing GLP-1R, 10 point dose response, 30 minutes incubation; read-out: EC50
[1] = Microsomal stability, human liver microsomes (predicted hepatic clearance); conditions: predicted from in vitro microsomal stability data

Sequence of GLP-1R (P43220 24-463): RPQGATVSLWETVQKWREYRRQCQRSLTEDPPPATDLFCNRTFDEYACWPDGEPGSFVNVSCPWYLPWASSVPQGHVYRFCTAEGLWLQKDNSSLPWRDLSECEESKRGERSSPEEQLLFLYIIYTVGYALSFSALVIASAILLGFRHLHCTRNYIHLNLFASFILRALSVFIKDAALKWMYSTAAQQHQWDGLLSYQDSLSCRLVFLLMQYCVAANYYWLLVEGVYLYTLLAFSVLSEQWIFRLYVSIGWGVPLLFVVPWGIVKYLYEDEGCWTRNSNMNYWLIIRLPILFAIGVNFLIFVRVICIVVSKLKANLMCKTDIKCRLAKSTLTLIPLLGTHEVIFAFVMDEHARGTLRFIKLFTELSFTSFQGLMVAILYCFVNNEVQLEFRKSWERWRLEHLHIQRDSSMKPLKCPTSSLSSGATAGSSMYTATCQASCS

Row | SMILES | EC50 (GLP-1R) [nM] | Predicted Hepatic Clearance (Pred. Cl.) [1] [mL/min/kg]
1 | COCCn1c(Cc2ccc(-c3cc(OC)cc(OCc4ccc(C#N)cc4F)c3)cc2F)nc2ccc(C(=O)O)cc21 [Example 30, 2-((3′-((4-cyano-2-fluorobenzyl)oxy)-3-fluoro-5′-methoxy-[1,1′-biphenyl]-4-yl)methyl)-1-(2-methoxyethyl)-1H-benzo[d]imidazole-6-carboxylic acid] | 1350 | 4.67
2 | COCCn1c(Cc2ccc(-c3cc(C)cc(OCc4ccc(C#N)cc4F)n3)cc2F)nc2ccc(C(=O)O)cc21 [Example 31, 2-(4-(6-((4-cyano-2-fluorobenzyl)oxy)-4-methylpyridin-2-yl)-2-fluorobenzyl)-1-(2-methoxyethyl)-1H-benzo[d]imidazole-6-carboxylic acid] | 32 | 4.67
3 | COCCn1c(Cc2ccc(-c3cccc(OCc4ccc(C#N)cc4F)n3)c3ccccc23)nc2ccc(C(=O)O)cc21 [Example 35, 2-((4-(6-((4-cyano-2-fluorobenzyl)oxy)pyridin-2-yl)naphthalen-1-yl)methyl)-1-(2-methoxyethyl)-1H-benzo[d]imidazole-carboxylic acid] | 1000 | 5.17
4 | COCCn1c(Cc2cnc(-c3cccc(OCc4ccc(C#N)cc4F)n3)nc2)nc2ccc(C(=O)O)cc21 [Example 44, 2-((2-(6-((4-cyano-2-fluorobenzyl)oxy)pyridin-2-yl)pyrimidin-5-yl)methyl)-1-(2-methoxyethyl)-1H-benzo[d]imidazole-6-carboxylic acid] | 212 | 3
5 | CC1(Cn2c(Cc3ccc(-c4cccc(OCc5ccc(C#N)cc5F)n4)cc3F)nc3ccc(C(=O)NS(=O)(=O)C4CC4)cc32)CC1 [Example 50, 2-(4-(6-((4-Cyano-2-fluorobenzyl)oxy)pyridin-2-yl)-2-fluorobenzyl)-N-(cyclopropylsulfonyl)-1-((1-methylcyclopropyl)methyl)-1H-benzo[d]imidazole-6-carboxamide] | 19 | <1.83
6 | CC(C)(CF)Cn1c(Cc2ccc(-c3cccc(OCc4ccc(C#N)cc4F)n3)cc2F)nc2ccc(C(=O)NS(=O)(=O)C3CC3)cc21 [Example 51, 2-(4-(6-((4-cyano-2-fluorobenzyl)oxy)pyridin-2-yl)-2-fluorobenzyl)-N-(cyclopropylsulfonyl)-1-(3-fluoro-2,2-dimethylpropyl)-1H-benzo[d]imidazole-6-carboxamide] | 63 | <1.83
7 | CC(C)(Cn1c(Cc2ccc(-c3cccc(OCc4ccc(C#N)cc4F)n3)cc2F)nc2ccc(C(=O)NS(=O)(=O)C3CC3)cc21)C(F)F [Example 52, 2-(4-(6-((4-cyano-2-fluorobenzyl)oxy)pyridin-2-yl)-2-fluorobenzyl)-N-(cyclopropylsulfonyl)-1-(3,3-difluoro-2,2-dimethylpropyl)-1H-benzo[d]imidazole-6-carboxamide] | 56 | <1.83
8 | COCCn1c(Cc2ccc(-c3cccc(OCc4ccc(C#N)cc4F)n3)c(C)c2)nc2ccc(C(=O)NS(=O)(=O)C3CC3)cc21 [Example 53, 2-(4-(6-((4-cyano-2-fluorobenzyl)oxy)pyridin-2-yl)-3-methylbenzyl)-N-(cyclopropylsulfonyl)-1-(2-methoxyethyl)-1H-benzo[d]imidazole-6-carboxamide] | 1010 | 9
9 | COCCn1c(Cc2ccc(-c3cccc(OCc4ccc(C#N)cc4F)n3)cn2)nc2ccc(C(=O)NS(=O)(=O)C3CC3)cc21 [Example 54, 2-((6-((4-cyano-2-fluorobenzyl)oxy)-[2,3′-bipyridin]-6′-yl)methyl)-N-(cyclopropylsulfonyl)-1-(2-methoxyethyl)-1H-benzo[d]imidazole-6-carboxamide] | 806 | 3.83
10 | N#CCC1(Cn2c(Cc3ccc(-c4cccc(OCc5ccc(C#N)cc5F)n4)cc3F)nc3ccc(C(=O)NS(=O)(=O)C4CC4)cc32)CC1 [Example 55, 2-(4-(6-((4-cyano-2-fluorobenzyl)oxy)pyridin-2-yl)-2-fluorobenzyl)-1-((1-(cyanomethyl)cyclopropyl)methyl)-N-(cyclopropylsulfonyl)-1H-benzo[d]imidazole-6-carboxamide] | 3.4 | 4.33
11 | N#Cc1ccc(COc2cccc(-c3ccc(Cc4nc5ccc(C(=O)NS(=O)(=O)C6CC6)cc5n4CC4(CF)CC4)c(F)c3)n2)c(F)c1 [Example 57, 2-(4-(6-((4-cyano-2-fluorobenzyl)oxy)pyridin-2-yl)-2-fluorobenzyl)-N-(cyclopropylsulfonyl)-1-((1-(fluoromethyl)cyclopropyl)methyl)-1H-benzo[d]imidazole-6-carboxamide] | 6.7 | <1.83

Next, values leading:

Row | EC50 (GLP-1R) [nM] | Predicted Hepatic Clearance (Pred. Cl.) [1] [mL/min/kg] | SMILES
12 | > 1000 | 7.83 | COCCn1c(C2(c3ccc(-c4cccc(OCc5ccc(C#N)cc5F)n4)cc3)CC2)nc2ccc(C(=O)O)cc21 [Example 32, 2-(1-(4-(6-((4-cyano-2-fluorobenzyl)oxy)pyridin-2-yl)phenyl)cyclopropyl)-1-(2-methoxyethyl)-1H-benzo[d]imidazole-6-carboxylic acid]
13 | 26.9 | 5 | COCCn1c(Cc2ccc(-c3cccc(OCc4ccc(C#N)cc4F)n3)cc2OC)nc2ccc(C(=O)O)cc21 [Example 33, 2-(4-(6-((4-cyano-2-fluorobenzyl)oxy)pyridin-2-yl)-2-methoxybenzyl)-1-(2-methoxyethyl)-1H-benzo[d]imidazole-6-carboxylic acid]
14 | 2180 | 9.83 | COCCn1c(Cc2ccc(-c3cccc(OCc4ccc(C#N)cc4F)n3)c(C(F)(F)F)c2)nc2ccc(C(=O)O)cc21 [Example 34, 2-(4-(6-((4-cyano-2-fluorobenzyl)oxy)pyridin-2-yl)-3-(trifluoromethyl)benzyl)-1-(2-methoxyethyl)-1H-benzo[d]imidazole-carboxylic acid]
15 | 107 | 4 | COCCn1c(C2CCc3cc(-c4cccc(OCc5ccc(C#N)cc5F)n4)ccc32)nc2ccc(C(=O)O)cc21 (stereo not drawn) [Example 36, 2-(5-(6-((4-cyano-2-fluorobenzyl)oxy)pyridin-2-yl)-2,3-dihydro-1H-inden-1-yl)-1-(2-methoxyethyl)-1H-benzo[d]imidazole-carboxylic acid]
16 | 927 | 8.67 | COCCn1c(C2OCCc3cc(-c4cccc(OCc5ccc(C#N)cc5F)n4)ccc32)nc2ccc(C(=O)O)cc21 (stereo not drawn) [Example 37, 2-(6-(6-((4-cyano-2-fluorobenzyl)oxy)pyridin-2-yl)isochroman-1-yl)-1-(2-methoxyethyl)-1H-benzo[d]imidazole-carboxylic acid]
17 | 6.18 | 5.33 | COCCn1c(Cc2ccc(-c3cccc(OCc4ccc(C#N)cc4F)n3)cc2Cl)nc2ccc(C(=O)O)cc21 [Example 38, 2-(2-chloro-4-(6-((4-cyano-2-fluorobenzyl)oxy)pyridin-2-yl)benzyl)-1-(2-methoxyethyl)-1H-benzo[d]imidazole-carboxylic acid]
18 | 8.79 | <1.83 | COCCn1c(Cc2c(F)cc(-c3cccc(OCc4ccc(C#N)cc4F)n3)cc2F)nc2ccc(C(=O)O)cc21 [Example 39, 2-(4-(6-((4-cyano-2-fluorobenzyl)oxy)pyridin-2-yl)-2,6-difluorobenzyl)-1-(2-methoxyethyl)-1H-benzo[d]imidazole-carboxylic acid]
19 | 456 | <1.83 | COCCn1c(Cc2ccc(-c3cccc(OCc4ccc(C#N)cc4F)n3)cc2OC(F)(F)F)nc2ccc(C(=O)O)cc21 [Example 40, 2-(4-(6-((4-cyano-2-fluorobenzyl)oxy)pyridin-2-yl)-2-(trifluoromethoxy)benzyl)-1-(2-methoxyethyl)-1H-benzo[d]imidazole-6-carboxylic acid]
20 | 1460 | 6 | COCCn1c(C2CCOc3cc(-c4cccc(OCc5ccc(C#N)cc5F)n4)ccc32)nc2ccc(C(=O)O)cc21 (stereo not drawn) [Example 41, 2-(7-(6-((4-cyano-2-fluorobenzyl)oxy)pyridin-2-yl)chroman-4-yl)-1-(2-methoxyethyl)-1H-benzo[d]imidazole-carboxylic acid]
21 | 38.2 | 3.83 | COCCn1c(Cc2ccc(-c3cccc(OCc4ccc(C#N)cc4F)n3)cc2OC(F)F)nc2ccc(C(=O)O)cc21 [Example 42, 2-(4-(6-((4-cyano-2-fluorobenzyl)oxy)pyridin-2-yl)-2-(difluoromethoxy)benzyl)-1-(2-methoxyethyl)-1H-benzo[d]imidazole-6-carboxylic acid]
22 | 163 | 5.83 | COCCn1c(Cc2ccc(-c3cccc(OCc4ccc(C#N)cc4F)n3)nc2)nc2ccc(C(=O)O)cc21 [Example 43, 2-{[6-[6-[(4-cyano-2-fluoro-phenyl)methoxy]-2-pyridyl]-3-pyridyl]methyl}-3-(2-methoxyethyl)benzimidazole-5-carboxylic acid]
23 | 36 | 3.83 | COCCn1c(Cc2ccc(-c3cccc(OCc4ccc(C#N)cc4F)n3)c(F)c2F)nc2ccc(C(=O)O)cc21 [Example 45, 2-(4-(6-((4-cyano-2-fluorobenzyl)oxy)pyridin-2-yl)-2,3-difluorobenzyl)-1-(2-methoxyethyl)-1H-benzo[d]imidazole-6-carboxylic acid]
24 | 5.6 | <1.83 | COCCn1c(Cc2ccc(-c3cccc(OCc4ccc(C#N)cc4F)n3)cc2C)nc2ccc(C(=O)O)cc21 [Example 59, 2-(4-(6-((4-cyano-2-fluorobenzyl)oxy)pyridin-2-yl)-2-methylbenzyl)-1-(2-methoxyethyl)-1H-benzo[d]imidazole-6-carboxylic acid]
